“Also recorded” adds a separate entry of the source. Marks after values point to notes of the source that are not given here.

One assay has as its system TRAP-activated platelets. Briefly: Inhibition of TRAP-induced platelet aggregation after pre-incubation with peptide. The assay is classed as cell-based, human (healthy volunteers). The procedure, abridged:
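Aggregation was read by optical density at 37°C under 1100 rpm stirring. Samples were 3x10^5/μl washed human platelets, rested 45 min and supplemented with 1.8 mM calcium chloride. Peptide went in at 2 min, followed 6 min later by TRAP at an experiment-dependent concentration, with 7 min further recording.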

The target of the next assay is T1, vinculin (Homo sapiens, UniProt P18206).
T1 sequence (P18206 1-1066 isoform P18206-2): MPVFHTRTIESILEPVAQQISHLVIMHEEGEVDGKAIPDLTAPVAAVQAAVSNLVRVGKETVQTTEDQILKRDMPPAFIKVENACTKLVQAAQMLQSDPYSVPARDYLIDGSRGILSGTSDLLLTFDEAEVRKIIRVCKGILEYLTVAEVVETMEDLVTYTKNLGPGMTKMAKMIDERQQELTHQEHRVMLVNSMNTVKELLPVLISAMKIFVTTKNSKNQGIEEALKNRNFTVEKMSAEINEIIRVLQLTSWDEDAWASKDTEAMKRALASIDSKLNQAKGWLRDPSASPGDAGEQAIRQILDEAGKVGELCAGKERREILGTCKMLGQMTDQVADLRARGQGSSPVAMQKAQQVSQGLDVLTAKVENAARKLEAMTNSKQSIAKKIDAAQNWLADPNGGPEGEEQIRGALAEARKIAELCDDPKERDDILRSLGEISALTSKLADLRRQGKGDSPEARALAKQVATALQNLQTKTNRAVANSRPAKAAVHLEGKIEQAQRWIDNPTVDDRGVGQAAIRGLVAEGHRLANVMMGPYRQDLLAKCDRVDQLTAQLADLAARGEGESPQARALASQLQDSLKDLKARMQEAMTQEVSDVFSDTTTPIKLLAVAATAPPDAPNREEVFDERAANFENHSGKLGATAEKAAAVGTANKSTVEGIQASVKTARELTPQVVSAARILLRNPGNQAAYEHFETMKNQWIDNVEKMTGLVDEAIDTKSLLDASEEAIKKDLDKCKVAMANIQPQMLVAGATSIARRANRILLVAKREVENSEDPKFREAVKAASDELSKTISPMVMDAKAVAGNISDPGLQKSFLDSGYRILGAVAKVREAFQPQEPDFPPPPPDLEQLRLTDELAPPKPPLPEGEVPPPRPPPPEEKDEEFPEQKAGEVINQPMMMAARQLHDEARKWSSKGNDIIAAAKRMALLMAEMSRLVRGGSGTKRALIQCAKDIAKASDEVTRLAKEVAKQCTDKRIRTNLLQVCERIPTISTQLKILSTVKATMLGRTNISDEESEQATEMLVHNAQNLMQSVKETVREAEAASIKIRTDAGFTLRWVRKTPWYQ
The assay is described as follows: Surface plasmon resonance, peptides injected over immobilised vinculin. Format: binding. Conditions: SPR, CM5 chip, serial peptide injections at 1 mM; rank order. The protocol:
The SPR experiments were performed using a Biacore T200 system (GE Healthcare), and Series S CM5 or SA chips with 4 flow cells each.
Lyophilized vinculin was dissolved in flow buffer to a concentration of 1 mg/ml and covalently coupled onto the carboxymethylated dextran matrix of CM5 sensor chips using standard amine coupling. The flow buffer contained 10 mM HEPES, 150 mM NaCl, 3 mM EDTA, 0.05% surfactant P20. The chip was activated with an injection of 70 μl of a mixture of 0.05 M EDC and 0.2 M NHS, followed by the injection of approximately 70 μl of 10 μg/ml vinculin in 10 mM sodium acetate, pH 5.0 in one flow cell to yield a response of 7200 RU. Remaining reactive groups in the channel were blocked with an injection of 100 μl ethanolamine. Binding experiments were performed by injecting peptides for 120 s at a flow rate of 20 μl/min, at a concentration of 1 mM in the flow buffer over the chip surface to monitor association kinetics, followed by buffer flow for 120 s to measure dissociation kinetics. Between experiments, the surface was regenerated by injecting a 60 second pulse of 10 mM glycine pH 2.
On the technique in general: SPR reads the build-up and loss of mass on a sensor chip optically.

The next assay has as its target T2, vinculin in HeLa cells (Homo sapiens, UniProt P18206).
T2 construct: endogenous in cells; host or cells: HeLa
T2 sequence (P18206 1-1066 isoform P18206-2): T1 sequence (P18206 1-1066 isoform P18206-2)
Briefly: Co-localization of 5FAM-labeled peptide with vinculin in HeLa cells (microscopy). The assay is classed as cell-based. The settings on record: 15 μM, 5-15 minutes. The protocol: HeLa cells were seeded on a 24-well plate with inserted coverslips at a density of 30000 cells/well. After 24h the cells were treated with 15 μM peptide for the desired amount of time (5, 10, 15 minutes). Cells were then fixed in 3% paraformaldehyde (PFA, Sigma) for 20 minutes and permeabilized with 0.1% Triton X-100 (Sigma) for 5 minutes at room temperature. Cells were then washed 3 times with PBS and stained with antibodies. Staining with primary antibody (paxillin/vinculin (Abcam)) was performed for 30 minutes, followed by three PBS washes and secondary staining using goat anti-mouse Alexa 568 antibody (Life Technologies) for 30 minutes. Then the nuclei were stained with 0.2 μg/ml Hoechst33342, the coverslips were thoroughly washed with PBS and mounted on glass slides with Mowiol mounting medium. The slides were then imaged on a FluoView FV1000 laser scanning microscope (Olympus) with 60x UPLSAPO 1.35NA (Olympus) oil immersion objective.

Consider “tat-WEQLLTTIARTINEVENQI-(NH2) [tat-ACTN1_VBS]”, for which the “Aggregation after TRAP, peptide alone 1x (A 1x / B 1x)” value in the assay on TRAP-activated platelets (TRAP 2 μM after 6 minutes pre-incubation, 4 μM pal-peptides, 10 μM tat-peptides, mean n = 3) was 68.33. In the assay on TRAP-activated platelets (TRAP 2 μM after 6 minutes pre-incubation, double concentration of 4 μM (pal) / 10 μM (tat), mean n = 3), the “Aggregation after TRAP, peptide alone 2x (A 2x / B 2x)” value was 68.67. For the same substance, in the assay with TRAP-activated platelets (platelet aggregation induced by 4 μM TRAP in platelets pre-incubated with peptide (low value = inhibition), pal-peptides 20 μM, tat-peptides 50 μM, mean, n>=3), the “Platelet aggregation after TRAP activation” value is 61 ^*. Moreover, the “Aggregation after TRAP activation, donor e” value in the assay on TRAP-activated platelets (replicate donor e, TRAP 4 μM, pal 20 μM, tat 50 μM) is recorded as 66. In the assay on TRAP-activated platelets (replicate donor k, TRAP 4 μM, pal 20 μM, tat 50 μM), the “Aggregation after TRAP activation, donor k” value worked out at 51. Also, the “Aggregation after TRAP activation, donor l” value in the assay with TRAP-activated platelets (replicate donor l, TRAP 4 μM, pal 20 μM, tat 50 μM) came to 68. At vinculin, the “Relative binding affinity to immobilised vinculin” value was “tat-ACTN1_VBS > TLN1_VBS-tat > ACTN1_VBS-tat > ACTN1_VBS; also recorded: bound with relatively higher affinity”. The Co-localization with vinculin result on vinculin in HeLa cells is recorded as “co-localized with vinculin”.
